# According to ChEMBL document CHEMBL1201862, “PubChem BioAssay data set” (2004):
# The source made the active and inactive calls.
# Key:
# Protein Wnt-3a = Protein Wnt-3a (Mus musculus, UniProt P27467); assay: antagonism of Wnt3a pathway luciferase reporter – Wnt-LIGHT cells, luminescence, selectivity assay for Gli-SUFU antagonist project, dose response (AID 651570); type: functional; details: read-out: IC50_Mean;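 note: Wnt-LIGHT reporter cells stimulated with conditioned medium from Wnt3a-producing cells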
# Sequence of Protein Wnt-3a (P27467 whole entry): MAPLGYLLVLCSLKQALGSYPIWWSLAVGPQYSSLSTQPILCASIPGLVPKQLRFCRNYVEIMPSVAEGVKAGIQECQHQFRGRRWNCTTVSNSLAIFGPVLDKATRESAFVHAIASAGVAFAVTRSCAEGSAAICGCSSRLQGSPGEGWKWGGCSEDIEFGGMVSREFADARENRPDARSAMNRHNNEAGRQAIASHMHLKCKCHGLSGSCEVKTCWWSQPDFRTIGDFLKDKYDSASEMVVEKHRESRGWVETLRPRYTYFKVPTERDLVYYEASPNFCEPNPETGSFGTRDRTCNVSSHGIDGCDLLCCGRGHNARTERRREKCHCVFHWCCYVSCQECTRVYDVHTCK
# [1] = loss of viability in HepG2 cells – cell-based, CellTiter-Glo, cherry-picked, cytotoxicity control for Shn3 inhibitor project, dose response (AID 624134); type: functional
# [2] = HEK-293T viability loss after treatment – luminescence, T-cell screen hits, cytotoxicity control for TCR NF-kB inhibitor project, dose response (AID 489026); type: functional, cell-based;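 note: cells exposed to compound about 14 hours before the viability readout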
# [3] = reduction of Shn3 3'UTR-driven luciferase in osteoblasts – cell-based, Clone20 osteoblasts, firefly luciferase, cherry-picked, dose response (AID 624132); type: functional;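 note: firefly luciferase luminescence from reporter carrying the Shn3 3'UTR in osteoblasts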
# [4] = non-specific 3'UTR reporter inhibition in Clone20-Shn3RL – cell-based, Renilla luciferase, cherry-picked, counter-screen for Shn3 inhibitor project, dose response (AID 624133); type: functional
# [5] = target: T1, Mannose-6-phosphate isomerase (Homo sapiens, UniProt P34949); assay: MPI inhibition at elevated mannose 6-phosphate – biochemical, fluorescence intensity, high mannose 6-phosphate, primary screen (AID 1220)
# T1 sequence (P34949 whole entry): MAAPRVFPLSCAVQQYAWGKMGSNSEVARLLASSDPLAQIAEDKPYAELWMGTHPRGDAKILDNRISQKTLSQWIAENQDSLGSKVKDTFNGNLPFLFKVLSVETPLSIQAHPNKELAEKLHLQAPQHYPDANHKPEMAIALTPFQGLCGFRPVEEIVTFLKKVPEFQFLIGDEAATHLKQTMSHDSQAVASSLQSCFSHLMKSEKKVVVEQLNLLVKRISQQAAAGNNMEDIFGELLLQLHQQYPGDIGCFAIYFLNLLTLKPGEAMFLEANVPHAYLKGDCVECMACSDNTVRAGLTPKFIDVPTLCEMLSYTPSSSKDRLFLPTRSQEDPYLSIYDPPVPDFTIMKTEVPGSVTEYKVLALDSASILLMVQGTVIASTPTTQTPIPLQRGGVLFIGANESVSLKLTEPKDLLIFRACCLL
# Beta-galactosidase = Beta-galactosidase (Escherichia coli, UniProt Q8VNN2); assay: Dose response counterscreen for EBI2 assay utilizing the enzyme, b-galactosidase.; type: functional
# Sequence of Beta-galactosidase (Q8VNN2 whole entry): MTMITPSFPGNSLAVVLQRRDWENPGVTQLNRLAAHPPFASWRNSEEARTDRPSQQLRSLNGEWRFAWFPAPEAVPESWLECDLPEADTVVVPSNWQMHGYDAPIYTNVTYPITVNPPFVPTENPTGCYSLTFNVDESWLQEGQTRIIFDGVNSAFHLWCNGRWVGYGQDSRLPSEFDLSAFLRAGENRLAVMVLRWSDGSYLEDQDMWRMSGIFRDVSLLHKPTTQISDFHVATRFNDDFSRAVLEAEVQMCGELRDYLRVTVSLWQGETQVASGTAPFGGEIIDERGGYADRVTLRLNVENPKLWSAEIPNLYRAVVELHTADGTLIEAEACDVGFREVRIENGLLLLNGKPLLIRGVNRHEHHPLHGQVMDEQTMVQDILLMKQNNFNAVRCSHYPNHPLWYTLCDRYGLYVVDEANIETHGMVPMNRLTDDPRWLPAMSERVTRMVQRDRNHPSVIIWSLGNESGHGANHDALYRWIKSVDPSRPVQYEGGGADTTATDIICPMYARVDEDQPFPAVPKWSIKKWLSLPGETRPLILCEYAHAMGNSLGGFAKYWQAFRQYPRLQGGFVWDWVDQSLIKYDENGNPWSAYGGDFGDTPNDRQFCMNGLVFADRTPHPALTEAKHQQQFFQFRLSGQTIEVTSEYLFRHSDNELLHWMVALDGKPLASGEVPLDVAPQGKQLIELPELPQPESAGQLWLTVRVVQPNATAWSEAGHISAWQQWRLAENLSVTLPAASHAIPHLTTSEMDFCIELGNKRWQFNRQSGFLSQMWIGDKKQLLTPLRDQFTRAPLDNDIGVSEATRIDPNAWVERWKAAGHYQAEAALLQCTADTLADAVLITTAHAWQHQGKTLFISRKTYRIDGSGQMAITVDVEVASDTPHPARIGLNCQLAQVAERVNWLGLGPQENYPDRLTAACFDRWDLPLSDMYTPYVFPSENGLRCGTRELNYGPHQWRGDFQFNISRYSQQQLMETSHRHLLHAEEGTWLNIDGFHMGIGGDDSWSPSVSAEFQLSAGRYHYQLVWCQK
# [6] = target: T2, Adenosylmethionine-8-amino-7-oxononanoate aminotransferase (Mycobacterium tuberculosis, UniProt P9WQ81); assay: Mycobacterium tuberculosis BioA enzyme inhibitor Measured in Biochemical System Using Plate Reader - 2163-02_Inhibitor_Dose_CherryPick_Activity.; type: functional, Mycobacterium tuberculosis UT205
# T2 sequence (P9WQ81 whole entry): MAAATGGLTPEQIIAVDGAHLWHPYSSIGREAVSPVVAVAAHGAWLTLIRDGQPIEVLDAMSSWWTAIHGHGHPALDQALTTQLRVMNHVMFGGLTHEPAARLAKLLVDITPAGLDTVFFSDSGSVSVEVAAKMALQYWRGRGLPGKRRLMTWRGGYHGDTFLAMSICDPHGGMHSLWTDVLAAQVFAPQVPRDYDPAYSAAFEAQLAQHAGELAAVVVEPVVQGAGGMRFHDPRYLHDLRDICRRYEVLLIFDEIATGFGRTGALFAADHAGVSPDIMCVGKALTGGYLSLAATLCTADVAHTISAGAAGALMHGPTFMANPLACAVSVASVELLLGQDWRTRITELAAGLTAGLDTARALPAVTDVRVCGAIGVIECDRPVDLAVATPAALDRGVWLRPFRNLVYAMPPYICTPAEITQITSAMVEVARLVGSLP
# cells [7] = type: functional, cell-based
# cells [8] = type: functional, cell-based; remark: listed apart in the source
# [9] = blockers of bursicon-stimulated LGR2 cAMP reporter – cell-based, HEK293, CRE-luciferase reporter, cherry pick, set 2, dose response (AID 743343); type: functional;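 note: transfected cells were stimulated with diluted bursicon conditioned medium after compound addition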
# [10] = blockade of melanocortin 4 receptor signaling – cell-based, plate reader, cherry pick, counter-screen for LGR2 antagonist project, dose response (AID 743444); type: functional;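 note: transfected HEK 293 cells stimulated with alpha-MSH peptide; potency of inhibitors of the alpha-MSH evoked signal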
# [11] = A549 cell cytotoxicity, dose response, cytotoxicity control, plate reader, cherry-pick, antagonist series (AID 743412); type: functional, cell-based
# Protein RecA = target: T3, Protein RecA (Mycobacterium tuberculosis, UniProt P9WHJ3); assay: Fluorescence Cell-Free Homogeneous Dose Retest to Identify Inhibitors of RecA-Intein Splicing Activity. [Related pubchem assays (depositor defined):AID2097, AID2223, AID489010, AID492950]; type: functional
# T3 sequence (P9WHJ3 whole entry): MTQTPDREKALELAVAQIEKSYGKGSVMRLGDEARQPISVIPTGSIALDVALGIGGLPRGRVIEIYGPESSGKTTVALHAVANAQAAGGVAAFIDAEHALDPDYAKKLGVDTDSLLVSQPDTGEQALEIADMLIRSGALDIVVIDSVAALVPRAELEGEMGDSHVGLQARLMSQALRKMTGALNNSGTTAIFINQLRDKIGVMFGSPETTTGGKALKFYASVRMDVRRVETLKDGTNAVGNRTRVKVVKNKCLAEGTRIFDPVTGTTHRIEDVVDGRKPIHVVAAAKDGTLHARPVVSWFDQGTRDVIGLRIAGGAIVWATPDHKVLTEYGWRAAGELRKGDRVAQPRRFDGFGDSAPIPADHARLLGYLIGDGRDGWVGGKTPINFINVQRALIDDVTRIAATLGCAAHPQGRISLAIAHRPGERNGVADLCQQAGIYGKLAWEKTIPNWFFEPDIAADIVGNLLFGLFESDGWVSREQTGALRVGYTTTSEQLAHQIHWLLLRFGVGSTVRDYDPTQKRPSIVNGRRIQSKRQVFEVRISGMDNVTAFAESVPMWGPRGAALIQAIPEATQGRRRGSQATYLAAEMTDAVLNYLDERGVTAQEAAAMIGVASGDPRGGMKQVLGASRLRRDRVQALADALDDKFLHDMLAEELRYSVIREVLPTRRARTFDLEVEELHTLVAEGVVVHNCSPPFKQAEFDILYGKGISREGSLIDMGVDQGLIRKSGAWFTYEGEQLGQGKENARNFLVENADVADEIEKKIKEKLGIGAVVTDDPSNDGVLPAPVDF
# [12] = target: T4, Heat shock factor protein 1 (Mus musculus, UniProt P38532); assay: enhancement of HSF1-driven luciferase signal – cell-based, NIH3T3, luminescence, dose retest, confirmation (AID 435004); type: functional;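 note: stress induced by proteasome inhibitor MG132 added 30 min after compound; luciferase reporter driven by HSF1 response element in NIH3T3 cells; actives raise luminescence as potentiators of the MG132 stress response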
# T4 sequence (P38532 whole entry): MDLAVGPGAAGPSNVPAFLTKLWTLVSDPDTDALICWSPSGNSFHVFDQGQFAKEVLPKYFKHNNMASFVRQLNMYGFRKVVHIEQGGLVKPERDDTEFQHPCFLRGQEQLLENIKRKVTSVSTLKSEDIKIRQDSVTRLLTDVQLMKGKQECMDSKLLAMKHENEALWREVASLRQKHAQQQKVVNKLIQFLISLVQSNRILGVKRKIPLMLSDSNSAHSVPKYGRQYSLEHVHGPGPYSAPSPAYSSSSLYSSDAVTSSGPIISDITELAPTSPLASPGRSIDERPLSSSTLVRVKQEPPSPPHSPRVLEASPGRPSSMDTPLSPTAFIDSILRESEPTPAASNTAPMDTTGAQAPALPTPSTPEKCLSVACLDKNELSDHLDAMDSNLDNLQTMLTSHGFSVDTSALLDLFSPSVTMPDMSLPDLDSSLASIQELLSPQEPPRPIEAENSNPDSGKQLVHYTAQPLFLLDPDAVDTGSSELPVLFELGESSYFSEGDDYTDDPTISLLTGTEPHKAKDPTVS
# Large T antigen = Large T antigen (Simian virus 40, UniProt P03070); type: functional, Betapolyomavirus macacae;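 note: Confirmatory-stage PubChem screen for compounds that inhibit SV40 T antigen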
# Sequence of Large T antigen (P03070 whole entry): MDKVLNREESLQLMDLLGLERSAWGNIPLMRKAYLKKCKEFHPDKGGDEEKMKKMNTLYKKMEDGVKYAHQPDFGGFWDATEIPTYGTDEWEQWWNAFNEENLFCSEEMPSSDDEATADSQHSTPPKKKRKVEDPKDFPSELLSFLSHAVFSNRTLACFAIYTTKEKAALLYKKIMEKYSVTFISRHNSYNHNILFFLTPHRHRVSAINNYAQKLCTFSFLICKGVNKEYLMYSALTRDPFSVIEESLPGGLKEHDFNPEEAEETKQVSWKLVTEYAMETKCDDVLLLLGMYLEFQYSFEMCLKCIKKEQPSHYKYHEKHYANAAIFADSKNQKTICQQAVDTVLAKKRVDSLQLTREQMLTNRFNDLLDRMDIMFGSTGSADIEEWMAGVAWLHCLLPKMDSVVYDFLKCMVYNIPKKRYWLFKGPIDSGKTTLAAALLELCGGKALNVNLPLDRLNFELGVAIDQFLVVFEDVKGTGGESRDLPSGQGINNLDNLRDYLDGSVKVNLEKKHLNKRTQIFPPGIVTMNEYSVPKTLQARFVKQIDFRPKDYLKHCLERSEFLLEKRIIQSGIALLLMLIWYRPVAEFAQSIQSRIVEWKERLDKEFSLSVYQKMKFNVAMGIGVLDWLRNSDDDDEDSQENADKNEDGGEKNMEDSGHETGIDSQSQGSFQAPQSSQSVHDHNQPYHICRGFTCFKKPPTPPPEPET
# [13] = target: T5, Rac GTPase-activating protein 1 (Homo sapiens, UniProt Q9H0H5); assay: blockers of MgcRacGAP-driven Rac1 GTP hydrolysis – biochemical, ADP Hunter fluorescence, primary and confirmatory, confirmation (AID 624330); type: functional
# T5 sequence (Q9H0H5 whole entry): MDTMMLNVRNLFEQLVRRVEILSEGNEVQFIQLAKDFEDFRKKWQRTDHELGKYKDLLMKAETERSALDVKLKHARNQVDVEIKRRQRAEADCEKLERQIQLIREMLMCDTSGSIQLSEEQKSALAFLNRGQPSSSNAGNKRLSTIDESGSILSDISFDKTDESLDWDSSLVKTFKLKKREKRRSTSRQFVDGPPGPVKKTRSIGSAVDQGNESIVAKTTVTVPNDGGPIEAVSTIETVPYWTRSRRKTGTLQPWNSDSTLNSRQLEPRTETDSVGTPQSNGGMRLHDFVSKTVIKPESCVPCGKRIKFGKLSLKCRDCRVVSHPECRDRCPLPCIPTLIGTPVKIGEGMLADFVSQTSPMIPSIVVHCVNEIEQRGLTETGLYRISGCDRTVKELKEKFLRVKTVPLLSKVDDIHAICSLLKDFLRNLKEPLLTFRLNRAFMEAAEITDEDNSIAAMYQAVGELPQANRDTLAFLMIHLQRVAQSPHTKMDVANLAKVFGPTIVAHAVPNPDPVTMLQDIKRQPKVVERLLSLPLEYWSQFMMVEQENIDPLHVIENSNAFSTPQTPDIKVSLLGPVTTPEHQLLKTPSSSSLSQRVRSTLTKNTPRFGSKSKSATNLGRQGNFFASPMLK
# Cytochrome P450 2C9 = Cytochrome P450 2C9 (Homo sapiens, UniProt P11712)
# Sequence of Cytochrome P450 2C9 (P11712 whole entry): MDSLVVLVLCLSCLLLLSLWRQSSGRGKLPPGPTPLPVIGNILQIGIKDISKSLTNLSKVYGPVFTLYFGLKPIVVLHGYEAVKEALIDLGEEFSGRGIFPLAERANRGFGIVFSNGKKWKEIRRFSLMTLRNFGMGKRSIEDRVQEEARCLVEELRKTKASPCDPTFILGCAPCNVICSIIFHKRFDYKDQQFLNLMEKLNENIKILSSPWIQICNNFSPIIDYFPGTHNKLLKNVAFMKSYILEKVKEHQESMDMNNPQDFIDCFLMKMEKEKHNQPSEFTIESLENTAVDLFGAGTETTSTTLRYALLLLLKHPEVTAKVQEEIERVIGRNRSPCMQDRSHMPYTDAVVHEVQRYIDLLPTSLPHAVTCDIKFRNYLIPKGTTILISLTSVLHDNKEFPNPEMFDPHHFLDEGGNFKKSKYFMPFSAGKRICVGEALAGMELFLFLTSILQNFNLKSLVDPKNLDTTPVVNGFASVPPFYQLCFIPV
# [14] = target: Peroxisome proliferator-activated receptor gamma/Nuclear receptor coactivator 2 (Homo sapiens, UniProt P37231); type: functional;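 note: agonist potency for raising coactivator recruitment to the receptor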
# [15] = target: Peroxisome proliferator-activated receptor gamma/Nuclear receptor coactivator 3 (Homo sapiens, UniProt P37231); type: functional;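 note: agonist potency for raising coactivator recruitment to the receptor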
# Sequence of Peroxisome proliferator-activated receptor gamma/Nuclear receptor coactivator 3 (P37231 whole entry): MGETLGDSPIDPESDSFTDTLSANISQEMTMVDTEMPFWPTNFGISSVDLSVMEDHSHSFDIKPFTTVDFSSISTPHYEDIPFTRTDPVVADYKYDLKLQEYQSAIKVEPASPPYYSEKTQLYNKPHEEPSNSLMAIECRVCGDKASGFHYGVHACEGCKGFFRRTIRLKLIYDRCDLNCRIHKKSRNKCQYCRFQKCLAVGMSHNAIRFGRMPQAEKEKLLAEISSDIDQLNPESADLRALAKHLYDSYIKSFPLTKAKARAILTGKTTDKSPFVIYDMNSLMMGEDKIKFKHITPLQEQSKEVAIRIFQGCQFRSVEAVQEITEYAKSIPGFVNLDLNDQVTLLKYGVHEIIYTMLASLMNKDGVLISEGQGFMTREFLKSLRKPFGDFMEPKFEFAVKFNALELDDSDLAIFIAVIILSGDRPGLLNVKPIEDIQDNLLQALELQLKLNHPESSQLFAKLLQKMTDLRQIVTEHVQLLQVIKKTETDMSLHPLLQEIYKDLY
# Sequence of Peroxisome proliferator-activated receptor gamma/Nuclear receptor coactivator 3 (Q9Y6Q9 whole entry, further chain): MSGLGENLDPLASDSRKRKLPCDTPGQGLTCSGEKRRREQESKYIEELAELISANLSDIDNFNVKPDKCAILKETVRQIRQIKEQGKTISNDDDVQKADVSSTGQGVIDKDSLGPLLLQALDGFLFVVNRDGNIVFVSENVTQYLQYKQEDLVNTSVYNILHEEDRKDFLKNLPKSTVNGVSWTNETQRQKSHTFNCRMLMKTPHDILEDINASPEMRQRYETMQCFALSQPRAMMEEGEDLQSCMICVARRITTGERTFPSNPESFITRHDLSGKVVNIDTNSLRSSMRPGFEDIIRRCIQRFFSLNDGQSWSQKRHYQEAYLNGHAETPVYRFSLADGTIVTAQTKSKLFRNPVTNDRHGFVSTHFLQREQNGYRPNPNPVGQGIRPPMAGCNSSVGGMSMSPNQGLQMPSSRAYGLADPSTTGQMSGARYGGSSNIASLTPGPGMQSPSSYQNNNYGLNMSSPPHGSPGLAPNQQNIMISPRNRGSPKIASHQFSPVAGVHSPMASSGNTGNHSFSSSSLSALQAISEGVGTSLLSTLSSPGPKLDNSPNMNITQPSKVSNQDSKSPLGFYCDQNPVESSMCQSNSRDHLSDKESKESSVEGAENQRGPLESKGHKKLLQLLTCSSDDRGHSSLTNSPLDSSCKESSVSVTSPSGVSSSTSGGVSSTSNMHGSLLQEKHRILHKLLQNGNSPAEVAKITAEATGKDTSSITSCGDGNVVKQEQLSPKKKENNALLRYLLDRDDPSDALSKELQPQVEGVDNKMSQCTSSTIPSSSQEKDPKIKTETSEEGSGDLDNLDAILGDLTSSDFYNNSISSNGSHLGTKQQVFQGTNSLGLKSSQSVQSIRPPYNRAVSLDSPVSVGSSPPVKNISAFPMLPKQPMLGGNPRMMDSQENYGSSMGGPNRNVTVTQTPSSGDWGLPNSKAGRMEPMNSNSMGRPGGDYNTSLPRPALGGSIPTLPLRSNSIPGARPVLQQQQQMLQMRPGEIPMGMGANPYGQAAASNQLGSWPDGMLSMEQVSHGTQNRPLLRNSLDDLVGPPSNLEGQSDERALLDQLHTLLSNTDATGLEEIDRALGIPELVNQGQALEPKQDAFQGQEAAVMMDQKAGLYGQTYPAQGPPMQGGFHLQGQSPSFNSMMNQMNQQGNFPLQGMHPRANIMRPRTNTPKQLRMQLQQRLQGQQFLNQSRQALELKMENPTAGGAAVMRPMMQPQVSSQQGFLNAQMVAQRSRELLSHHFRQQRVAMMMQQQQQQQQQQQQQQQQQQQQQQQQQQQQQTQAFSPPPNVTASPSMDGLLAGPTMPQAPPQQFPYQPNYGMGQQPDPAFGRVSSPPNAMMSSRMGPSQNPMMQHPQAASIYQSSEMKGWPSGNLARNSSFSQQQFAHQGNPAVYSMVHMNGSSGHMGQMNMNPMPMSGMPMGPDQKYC
# [16] = target: Peroxisome proliferator-activated receptor gamma/Nuclear receptor coactivator 1 (Homo sapiens, UniProt P37231); type: functional;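 note: agonist potency as compounds enhance coactivator SRC-1 recruitment to PPARgamma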
# [17] = target: Induced myeloid leukemia cell differentiation protein Mcl-1 (Homo sapiens, UniProt Q07820); type: functional
# Sequence of Induced myeloid leukemia cell differentiation protein Mcl-1 (Q07820 whole entry, the tested form may be a part): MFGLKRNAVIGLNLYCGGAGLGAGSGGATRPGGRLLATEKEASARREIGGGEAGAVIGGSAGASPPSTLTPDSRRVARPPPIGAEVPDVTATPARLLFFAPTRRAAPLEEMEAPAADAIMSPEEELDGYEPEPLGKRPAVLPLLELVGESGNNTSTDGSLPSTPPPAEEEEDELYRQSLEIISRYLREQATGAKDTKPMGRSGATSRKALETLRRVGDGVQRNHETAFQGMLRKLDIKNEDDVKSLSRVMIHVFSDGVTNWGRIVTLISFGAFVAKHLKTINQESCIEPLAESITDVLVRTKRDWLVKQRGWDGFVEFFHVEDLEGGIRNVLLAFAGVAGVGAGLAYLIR
# [18] = target: T6, Carboxy-terminal domain RNA polymerase II polypeptide A small phosphatase 1 (Homo sapiens, UniProt Q9GZU7); assay: CTDSP1 inhibitors, concentration-response, biochemical, absorbance readout, ultra-high-throughput screen actives (AID 540297); type: functional
# T6 sequence (Q9GZU7 whole entry): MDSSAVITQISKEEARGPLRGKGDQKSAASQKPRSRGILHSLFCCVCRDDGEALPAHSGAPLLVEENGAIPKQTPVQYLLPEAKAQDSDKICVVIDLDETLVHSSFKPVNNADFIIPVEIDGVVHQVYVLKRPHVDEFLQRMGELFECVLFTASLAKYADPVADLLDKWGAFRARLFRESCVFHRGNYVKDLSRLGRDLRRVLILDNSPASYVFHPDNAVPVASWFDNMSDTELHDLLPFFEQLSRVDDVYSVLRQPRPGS
structure (smiles),measurement,setting,value
CCCCc1ccc(NC(=O)C(=O)NCCN2CCN(Cc3ccc([N+](=O)[O-])cc3)CC2)cc1,IC50,Protein Wnt-3a,1.8 µM (active)
same,AC50,[1],64.2 µM (active)
same,IC50,[2],> 80 µM (inactive)
same,AC50,[3],1.13 µM (active)
same,AC50,[4],4.92 µM (active)
CCOc1ccc(NC(S)=Nc2cccc3cnccc23)cc1,IC50,[5],> 50 µM (not active)
COc1ccc(/C=N/N=C/c2cnc(O)c(C#N)c2Nc2ccccc2)cc1,IC50,Beta-galactosidase,> 80 µM (inactive)
COc1ccc(CCNC(=O)c2cnc3n(c2=O)CCS3)cc1OC,AC50,[6],13.7 µM (active)
CCOC(=O)[C@]12CCC=C1N(CCC1=CCCCC1)C(=O)[C@H](CC(=O)NCCc1ccccc1OC)C2,IC50,cells [7],> 29.9 µM (inactive)
same,EC50,cells [8],> 29.9 µM (inactive)
CCCCc1ccc(NC(=O)c2cnccn2)cc1,AC50,[9],12.4 µM (active)
same,AC50,[10],9.42 µM (active)
same,AC50,[11],> 52 µM (inactive)
CCCCn1c(NC(=O)c2ccco2)c(S(=O)(=O)c2ccc(C)cc2)c2nc3ccccc3nc21,IC50,[5],> 50 µM (not active)
same,EC50,Protein RecA,> 380 µM (inactive)
same,EC50,[12],152 µM (active)
O=C(N/N=C/c1ccc(O)cc1)c1csc2ccccc12,IC50,Large T antigen,13.3 µM (active)
same,IC50,[13],42.3 µM (active)
same,AC50,Cytochrome P450 2C9,inconclusive
same,EC50,[14],> 79.4 µM (not active)
same,EC50,[15],> 79.4 µM (not active)
same,EC50,[16],> 79.4 µM (not active)
O=C(/C=C/c1ccc(Cl)cc1)N1CCN(CCN2C(=O)c3cccc4cccc(c34)C2=O)CC1,IC50,Beta-galactosidase,> 80 µM (inactive)
NC(=S)n1[nH]c(-c2ccc([N+](=O)[O-])cc2)c(/N=N/c2ccccc2[N+](=O)[O-])c1=O,IC50,[17],23.2 µM (active)
same,IC50,[18],1.46 µM (active)
